In article PMC11704350 (2025):
Blank lines part the entries; values can stand above or below the compound they belong to.

Key:
[1] = test system: Nrf2C (DNA, i motif) CCCTCCCGCCCTTGCTCCCTTCCC; test: fluorescent indicator displacement; conditions: 100 mM KCl, 10 mM sodium cacodylate pH 6.5, room temperature, thiazole orange displaced
[2] = test system: DAPG (DNA, G4) GGGGGCGGGGGCGGGGGCGGGGGCGGGGG; test: UV titration (ligand absorbance); conditions: 100 mM KCl, 10 mM sodium cacodylate pH 6.5, DNA up to 50 µM
[3] = test system: Nrf2C (DNA, i motif) CCCTCCCGCCCTTGCTCCCTTCCC; test: UV titration (ligand absorbance); conditions: 100 mM KCl, 10 mM sodium cacodylate pH 6.5, DNA up to 50 µM
[4] = test system: Nrf2G (DNA, G4) GGGAAGGGAGCAAGGGCGGGAGGG; test: CD melting (264 nm); conditions: 100 mM KCl, 10 mM sodium cacodylate pH 6.5, 50 µM ligand, 10 µM DNA
[5] = test system: Nrf2G (DNA, G4) GGGAAGGGAGCAAGGGCGGGAGGG; test: UV titration (ligand absorbance); conditions: 100 mM KCl, 10 mM sodium cacodylate pH 6.5, DNA up to 50 µM
[6] = test system: hTeloC (DNA, i motif) TAACCCTAACCCTAACCCTAACCC; test: UV titration (ligand absorbance); conditions: 100 mM KCl, 10 mM sodium cacodylate pH 6.5, DNA up to 50 µM
[7] = test system: DS (DNA, duplex) GGCATAGTGCGTGGGCGTTAGC/GCTAACGCCCACGCACTATGCC; test: UV titration (ligand absorbance); conditions: 100 mM KCl, 10 mM sodium cacodylate pH 6.5, DNA up to 50 µM
[8] = test system: DS (DNA, duplex) GGCATAGTGCGTGGGCGTTAGC/GCTAACGCCCACGCACTATGCC; test: CD melting (253 nm); conditions: 100 mM KCl; 10 mM sodium cacodylate pH 6.5; 50 µM ligand, 10 µM DNA
[9] = test system: hTeloG (DNA, G4) GGGTTAGGGTTAGGGTTAGGGTTA; test: UV titration (ligand absorbance); conditions: 100 mM KCl, 10 mM sodium cacodylate pH 6.5, DNA up to 50 µM
[10] = test system: DAPC (DNA, i motif) CCCCCGCCCCCGCCCCCGCCCCCGCCCCC; test: UV titration (ligand absorbance); conditions: 100 mM KCl, 10 mM sodium cacodylate pH 6.5, DNA up to 50 µM
[11] = test system: Nrf2C (DNA, i motif) CCCTCCCGCCCTTGCTCCCTTCCC; test: CD melting (288 nm); conditions: 100 mM KCl; 10 mM sodium cacodylate pH 6.5; 50 µM ligand, 10 µM DNA
[12] = 0.5 µM DNA (legend; methods 1 µM)

DC50 [1, 12]: 6.3 ± 0.6 µM
SMILES: C=Cc1cc(OC)c2c(c1)c(=O)oc1c2cc(OC)c2c(O)ccc(C3OC(C)C(O)C(C)(O)C3O)c21 (stereo not drawn)

DC50 [1, 12]: 1.5 ± 0.1 µM
SMILES: CCC(=O)c1ccc(O)c(O)c1

DC50 [1, 12]: 2.3 ± 0.1 µM
SMILES: COc1cc(-c2ccc(Nc3ccccc3C(=O)O)c(OC)c2)ccc1Nc1ccccc1C(=O)O

DC50 [1, 12]: 4.9 ± 1.5 µM
SMILES: COc1cccc2c1C(=O)c1c(O)c3c(c(O)c1C2=O)C[C@@](O)(C(C)=NO)C[C@@H]3O[C@H]1C[C@H](N)[C@H](O)[C@H](C)O1

DC50 [1, 12]: 3.9 ± 1.0 µM
SMILES: Cc1c2ccncc2c(C)c2c1[nH]c1ccccc12

DC50 [1, 12]: 16 ± 2.7 µM
SMILES: Cc1cc2nc3ccc(N(C)C)cc3[s+]c2cc1N

DC50 [1, 12]: 3.4 ± 0.5 µM
SMILES: Cc1ccc(NCCN(C)C)c2c(=O)c3cc(O)ccc3sc12

DC50 [1, 12]: 3.2 ± 0.1 µM
SMILES: Clc1c(Cl)c(Cl)c2[nH]nnc2c1Cl

DC50 [1, 12]: 12 ± 3.4 µM
SMILES: Nc1ccc(-c2nc3nc(N)nc(N)c3nc2-c2ccc(N)cc2)cc1

Kd ([2]; ligand monitored at 320 nm): 1.6 ± 0.2 µM
Kd ([3]; ligand monitored at 320 nm): 0.25 ± 0.1 µM
ΔTm ([4]; error ± 0.3): 5 ± 1.0 °C
Kd ([5]; ligand monitored at 320 nm): 0.6 ± 0.1 µM
DC50 ([1]; poor ligand solubility): > 20 µM
Kd ([6]; ligand monitored at 320 nm): 1.1 ± 0.2 µM
Kd ([7]; ligand monitored at 320 nm): 1.9 ± 0.1 µM
ΔTm [8]: 0 ± 0.7 °C
Kd ([9]; ligand monitored at 320 nm): 1.0 ± 0.1 µM
Kd ([10]; ligand monitored at 320 nm): 0.9 ± 0.1 µM
SMILES: O=C(Nc1ccc(Nc2ccncc2)cc1)c1ccc(Nc2ccnc3ccc([N+](=O)[O-])cc23)cc1[N+](=O)[O-]

Kd ([2]; ligand monitored at 335 nm): 8.2 ± 0.7 µM
Kd ([3]; ligand monitored at 335 nm): 20 ± 1.8 µM
ΔTm [4]: 9 ± 0.3 °C
Kd ([5]; ligand monitored at 335 nm): 6.6 ± 0.9 µM
DC50 [1, 12]: 13 ± 3.0 µM
Kd ([6]; ligand monitored at 335 nm): 10 ± 1.3 µM
Kd ([7]; ligand monitored at 335 nm): 2.4 ± 0.2 µM
ΔTm [8]: 9 ± 0.8 °C
ΔTm [11]: -1 ± 1.0 °C
Kd ([9]; ligand monitored at 335 nm): 6.2 ± 0.4 µM
Kd ([10]; ligand monitored at 335 nm): 6.0 ± 0.9 µM
SMILES: O=C1c2cccc3cc([N+](=O)[O-])cc(c23)C(=O)N1CCN1CCCC1
